Experimental findings from PubChem BioAssay AID1745844 (Carcinogenic Potency Database (CPDB), 2022) are described below.

The test system of the series is rodent lifetime carcinogenesis bioassay, tumor incidence TD50. Description: carcinogenic potency in animals, long-term in vivo studies, CPDB compilation (AID 1745844).
[1] abbreviates: mouse, strain B6C3F1, females, in feed, site: liver, lesion: hepatocellular carcinoma, dosed 91 weeks, study length 91 weeks.
[2] abbreviates: mouse, strain B6C3F1, females, in feed, site: liver, lesion: several types, types named in the paper, dosed 91 weeks, study length 91 weeks.
[3] abbreviates: mouse, strain B6C3F1, females, in feed, site: liver, lesion: several types, types named in the paper, dosed 100 weeks, study length 100 weeks.

“And” between values parts separate entries of the source, which are not always exact repeats. Identical values can stand only once. The source made the active and inactive calls. The rule behind the calls is not given here.

Turning to `C=C(C)C(=O)Nc1ccc(Cl)c(Cl)c1`, the carcinogen call by setting is: (mouse, strain B6AKF1, females, oral dosing, site: any site (literature study), lesion: several types, types named in the paper, dosed 76 weeks, study length 76 weeks) “negative (inactive)”; (mouse, strain B6AKF1, females, oral dosing, site: liver, lesion: hepatoma, dosed 76 weeks, study length 76 weeks) “negative (inactive)”; (mouse, strain B6AKF1, females, oral dosing, site: lung, lesion: adenoma, dosed 76 weeks, study length 76 weeks) “negative (inactive)”; (mouse, strain B6AKF1, males, oral dosing, site: lung, lesion: adenoma, dosed 76 weeks, study length 76 weeks) “negative (inactive)”; (mouse, strain B6C3F1, females, oral dosing, site: any site (literature study), lesion: one or several types, types not named, dosed 76 weeks, study length 76 weeks) “negative (inactive)”; (mouse, strain B6C3F1, females, oral dosing, site: liver, lesion: hepatoma, dosed 76 weeks, study length 76 weeks) “negative (inactive)”. For the same compound, the carcinogen call (mouse, strain B6C3F1, females, oral dosing, site: lung, lesion: several types, types named in the paper, dosed 76 weeks, study length 76 weeks) is “negative (inactive)”. In addition, the TD50 (as a rule, the 50% point of the dose-response relation for the toxic effect studied) was 49.1 mg/kg/day (inactive) (mouse, strain B6AKF1, males, oral dosing, site: any site (literature study), lesion: several types, types named in the paper, dosed 76 weeks, study length 76 weeks); 27.1 mg/kg/day (inactive) (mouse, strain B6AKF1, males, oral dosing, site: liver, lesion: hepatoma, dosed 76 weeks, study length 76 weeks); 5.39 mg/kg/day (inactive) (mouse, strain B6C3F1, males, oral dosing, site: any site (literature study), lesion: several types, types named in the paper, dosed 76 weeks, study length 76 weeks); 15.2 mg/kg/day (inactive) (mouse, strain B6C3F1, males, oral dosing, site: liver, lesion: hepatoma, dosed 76 weeks, study length 76 weeks); 23.7 mg/kg/day (inactive) (mouse, strain B6C3F1, males, oral dosing, site: lung, lesion: adenoma, dosed 76 weeks, study length 76 weeks).

As for `CN[C@H]1CCc2cc(OC)c(OC)c(OC)c2-c2ccc(OC)c(=O)cc21`, the TD50 (rat, strain BR 46, males, i.v., site: any site (literature study), lesion: benign tumor, dosed 52 weeks, study length 104 weeks) was 0.248 mg/kg/day (inactive); the TD50 (rat, strain BR 46, males, i.v., site: any site (literature study), lesion: malignant tumor, dosed 52 weeks, study length 104 weeks) is 0.129 mg/kg/day (inactive); the TD50 (rat, strain BR 46, males, i.v., site: any site (literature study), lesion: several types, types named in the paper, dosed 52 weeks, study length 104 weeks) was 0.0787 mg/kg/day (inactive).

Regarding `c1ccc(C2CO2)cc1` (stereo unspecified), the TD50 by setting is: (mouse, strain B6C3F1, females, by gavage, site: forestomach, lesion: several types, types named in the paper, dosed 104 weeks, study length 107 weeks) 172 mg/kg/day; (mouse, strain B6C3F1, females, by gavage, site: forestomach, lesion: squamous-cell carcinoma, dosed 104 weeks, study length 107 weeks) 505 mg/kg/day; (mouse, strain B6C3F1, females, by gavage, site: forestomach, lesion: squamous-cell papilloma, dosed 104 weeks, study length 107 weeks) 460 mg/kg/day; (mouse, strain B6C3F1, females, by gavage, site: liver, lesion: several types, types named in the paper, dosed 104 weeks, study length 107 weeks) 5960 mg/kg/day; (mouse, strain B6C3F1, males, by gavage, site: forestomach, lesion: several types, types named in the paper, dosed 104 weeks, study length 107 weeks) 90 mg/kg/day; (mouse, strain B6C3F1, males, by gavage, site: forestomach, lesion: squamous-cell carcinoma, dosed 104 weeks, study length 107 weeks) 475 mg/kg/day. The TD50 was 215 mg/kg/day (mouse, strain B6C3F1, males, by gavage, site: forestomach, lesion: squamous-cell papilloma, dosed 104 weeks, study length 107 weeks); 223 mg/kg/day (mouse, strain B6C3F1, males, by gavage, site: liver, lesion: several types, types named in the paper, dosed 104 weeks, study length 107 weeks); 42.9 mg/kg/day (rat, strain Fischer 344, females, by gavage, site: forestomach, lesion: several types, types named in the paper, dosed 104 weeks, study length 107 weeks); 114 mg/kg/day (rat, strain Fischer 344, females, by gavage, site: forestomach, lesion: squamous-cell carcinoma, dosed 104 weeks, study length 107 weeks); 217 mg/kg/day (rat, strain Fischer 344, females, by gavage, site: forestomach, lesion: squamous-cell papilloma, dosed 104 weeks, study length 107 weeks); 30.7 mg/kg/day (rat, strain Fischer 344, males, by gavage, site: forestomach, lesion: several types, types named in the paper, dosed 104 weeks, study length 107 weeks). In addition, the TD50 is, setting by setting: (rat, strain Fischer 344, males, by gavage, site: forestomach, lesion: squamous-cell carcinoma, dosed 104 weeks, study length 107 weeks) 81.6 mg/kg/day; (rat, strain Fischer 344, males, by gavage, site: forestomach, lesion: squamous-cell papilloma, dosed 104 weeks, study length 107 weeks) 146 mg/kg/day; (rat, strain Fischer 344, males, by gavage, site: liver, lesion: neoplastic nodule, dosed 104 weeks, study length 107 weeks) 10300 mg/kg/day; (rat, strain Sprague-Dawley, females, by gavage, site: any site (literature study), lesion: malignant tumor, dosed 52 weeks, study length 156 weeks) 166 mg/kg/day; (rat, strain Sprague-Dawley, females, by gavage, site: any site (literature study), lesion: several types, types named in the paper, dosed 52 weeks, study length 156 weeks) 164 mg/kg/day; (rat, strain Sprague-Dawley, females, by gavage, site: forestomach, lesion: benign tumor, dosed 52 weeks, study length 156 weeks) 503 mg/kg/day. In addition, the TD50 (rat, strain Sprague-Dawley, females, by gavage, site: forestomach, lesion: several types, types named in the paper, dosed 52 weeks, study length 156 weeks) is 96.5 mg/kg/day; the TD50 (rat, strain Sprague-Dawley, females, by gavage, site: forestomach, lesion: squamous-cell carcinoma, in situ, dosed 52 weeks, study length 156 weeks) was 129 mg/kg/day; the TD50 (rat, strain Sprague-Dawley, females, by gavage, site: forestomach, lesion: squamous-cell carcinoma, invasive, dosed 52 weeks, study length 156 weeks) was 301 mg/kg/day; the TD50 (rat, strain Sprague-Dawley, females, by gavage, site: forestomach, lesion: squamous-cell carcinoma, dosed 52 weeks, study length 156 weeks) was 102 mg/kg/day; the TD50 (rat, strain Sprague-Dawley, males, by gavage, site: any site (literature study), lesion: malignant tumor, dosed 52 weeks, study length 156 weeks) stood at 189 mg/kg/day; the TD50 (rat, strain Sprague-Dawley, males, by gavage, site: any site (literature study), lesion: several types, types named in the paper, dosed 52 weeks, study length 156 weeks) stood at 191 mg/kg/day. Besides, the TD50 (rat, strain Sprague-Dawley, males, by gavage, site: forestomach, lesion: benign tumor, dosed 52 weeks, study length 156 weeks) is 354 mg/kg/day; the TD50 (rat, strain Sprague-Dawley, males, by gavage, site: forestomach, lesion: several types, types named in the paper, dosed 52 weeks, study length 156 weeks) is 99.6 mg/kg/day; the TD50 (rat, strain Sprague-Dawley, males, by gavage, site: forestomach, lesion: squamous-cell carcinoma, in situ, dosed 52 weeks, study length 156 weeks) was 140 mg/kg/day; the TD50 (rat, strain Sprague-Dawley, males, by gavage, site: forestomach, lesion: squamous-cell carcinoma, invasive, dosed 52 weeks, study length 156 weeks) is 267 mg/kg/day; the TD50 (rat, strain Sprague-Dawley, males, by gavage, site: forestomach, lesion: squamous-cell carcinoma, dosed 52 weeks, study length 156 weeks) was 63 mg/kg/day.

On to `CNc1ccc(N(CCO)CCO)cc1[N+](=O)[O-]`, for which the TD50 (mouse, strain B6C3F1, females, in feed, site: any site (literature study), lesion: several types, types named in the paper, dosed 103 weeks, study length 104 weeks) came to 373 mg/kg/day; the TD50 (mouse, strain B6C3F1, females, in feed, site: liver, lesion: hepatocellular adenoma + hepatocellular carcinoma + neoplastic nodule, dosed 103 weeks, study length 104 weeks) was found to be 179 mg/kg/day; the TD50 (mouse, strain B6C3F1, females, in feed, site: liver, lesion: hepatocellular adenoma + hepatocellular carcinoma, dosed 103 weeks, study length 104 weeks) was 179 mg/kg/day; the TD50 (mouse, strain B6C3F1, females, in feed, site: liver, lesion: hepatocellular adenoma, dosed 38 weeks, study length 100 weeks) is 165 mg/kg/day; the TD50 (mouse, strain B6C3F1, females, in feed, site: liver, lesion: hepatocellular adenoma, dosed 64 weeks, study length 100 weeks) came out at 969 mg/kg/day; the TD50 (mouse, strain B6C3F1, females, in feed, site: liver, lesion: hepatocellular adenoma, dosed 103 weeks, study length 104 weeks) was determined as 697 mg/kg/day. Also, the TD50 runs as follows: (mouse, strain B6C3F1, females, in feed, site: liver, lesion: hepatocellular carcinoma, dosed 38 weeks, study length 100 weeks) 114 mg/kg/day; (mouse, strain B6C3F1, females, in feed, site: liver, lesion: hepatocellular carcinoma, dosed 64 weeks, study length 100 weeks) 94 mg/kg/day; under setting [1], 88.9 mg/kg/day and 148 mg/kg/day; (mouse, strain B6C3F1, females, in feed, site: liver, lesion: hepatocellular carcinoma, dosed 100 weeks, study length 100 weeks) 115 mg/kg/day and 163 mg/kg/day and 87.1 mg/kg/day; (mouse, strain B6C3F1, females, in feed, site: liver, lesion: hepatocellular carcinoma, dosed 103 weeks, study length 104 weeks) 208 mg/kg/day; (mouse, strain B6C3F1, females, in feed, site: liver, lesion: several types, types named in the paper, dosed 38 weeks, study length 100 weeks) 41.3 mg/kg/day. The TD50 reads like this: (mouse, strain B6C3F1, females, in feed, site: liver, lesion: several types, types named in the paper, dosed 64 weeks, study length 100 weeks) 81.5 mg/kg/day; under setting [2], 85 mg/kg/day; under setting [3], 70.6 mg/kg/day and 51.4 mg/kg/day; (mouse, strain B6C3F1, males, in feed, site: any site (literature study), lesion: several types, types named in the paper, dosed 103 weeks, study length 104 weeks) 561 mg/kg/day; (mouse, strain B6C3F1, males, in feed, site: liver + thyroid gland, lesion: hepatocellular carcinoma + follicular-cell adenoma, dosed 103 weeks, study length 104 weeks) 369 mg/kg/day; (mouse, strain B6C3F1, males, in feed, site: liver, lesion: hepatocellular adenoma + hepatocellular carcinoma + neoplastic nodule, dosed 103 weeks, study length 104 weeks) 259 mg/kg/day. Moreover, the TD50 reads like this: (mouse, strain B6C3F1, males, in feed, site: liver, lesion: hepatocellular adenoma + hepatocellular carcinoma, dosed 103 weeks, study length 104 weeks) 259 mg/kg/day; (mouse, strain B6C3F1, males, in feed, site: liver, lesion: hepatocellular adenoma, dosed 103 weeks, study length 104 weeks) 286 mg/kg/day; (mouse, strain B6C3F1, males, in feed, site: liver, lesion: hepatocellular carcinoma, dosed 103 weeks, study length 104 weeks) 389 mg/kg/day; (mouse, strain B6C3F1, males, in feed, site: thyroid gland, lesion: follicular-cell adenoma, dosed 103 weeks, study length 104 weeks) 2230 mg/kg/day; (rat, strain Fischer 344, females, in feed, site: liver, lesion: hepatocellular adenoma + hepatocellular carcinoma + neoplastic nodule, dosed 103 weeks, study length 104 weeks) 3310 mg/kg/day; (rat, strain Fischer 344, females, in feed, site: lung, lesion: alveolar/bronchiolar adenoma + alveolar/bronchiolar carcinoma, dosed 103 weeks, study length 104 weeks) 702 mg/kg/day. For the same compound, the TD50 is, setting by setting: (rat, strain Fischer 344, females, in feed, site: lung, lesion: alveolar/bronchiolar carcinoma, dosed 103 weeks, study length 104 weeks) 1190 mg/kg/day; (rat, strain Fischer 344, females, in feed, site: uterus, lesion: endometrial stromal polyp, dosed 103 weeks, study length 104 weeks) 429 mg/kg/day; (rat, strain Fischer 344, males, in feed, site: liver, lesion: hepatocellular adenoma + hepatocellular carcinoma + neoplastic nodule, dosed 103 weeks, study length 104 weeks) 938 mg/kg/day; (rat, strain Fischer 344, males, in feed, site: liver, lesion: hepatocellular carcinoma + neoplastic nodule, dosed 103 weeks, study length 104 weeks) 938 mg/kg/day; (rat, strain Fischer 344, males, in feed, site: liver, lesion: neoplastic nodule, dosed 103 weeks, study length 104 weeks) 1660 mg/kg/day. The carcinogen call is, setting by setting: under setting [1], “positive”; under setting [2], “positive”; under setting [3], “positive”.
